# Assay results: publication PMC8750527 (Cancers, 2021)
# Key:
# [1] = test system: subcutaneous HD-MB03 tumors; experiment: Subcutaneous HD-MB03 xenografts; type: in vivo, mouse; settings: oral, thrice a week
# Method: For subcutaneous xenograft experiments, tumor cells expressing the luciferase (350,000 HDMB-Luc cells and 1.10^6 DAOY-Luc cells) were resuspended in 200 µL of 5 µg/mL Matrigel (Corning Inc., Corning, NY, USA) and injected subcutaneously in the flank of 5-week-old Rj:NMRI-Foxn1 nude (nu/nu) female mice (Janvier Labs, Le Genest-Saint-Isle, France). Saline solution (NaCl 0.9M; 100 µL) containing 30 mg/mL D-Luciferin (Perkin Elmer, Wellesley, MA, USA) was injected intraperitoneally in the animals and the bioluminescence was quantified using an In Vivo Imaging System (Perkin Elmer, Wellesley, MA, USA) according to the manufacturer’s instructions. Tumor volume (V = L × l2 × 0.52) was determined with a caliper and the endpoint was determined as a tumor volume of 1000 mm^3. […] The mice were sacrificed when the tumor reached 1000 mm^3. […] No statistical methods were used to predetermine the sample size of the experiments. Animal facility availability and cost were used to determine sample sizes. Two independent cohorts of five mice per group were used for the tumor growth experiment with HD-MB03 cells and one cohort of five mice per group was used for the experiment with DAOY cells. Animal experiments were carried out in strict accordance with the recommendations in the Guide for the Care and Use of Laboratory Animals. Our experiments were approved by Direction de l’Action Sanitaire et Sociale of the Principality of Monaco and the ethics committee of Centre Scientifique de Monaco.
# (§1) The growth rate of the tumors generated with HD-MB03 cells was determined using a linear regression method applied to the growth curves between the sizes of 400 mm^3 up to the endpoint using Prism 5 (Graphpad Software Inc., San Diego, CA, USA).
# Tumor samples were recovered from the animals and embedded in the OCT compound according to the manufacturer’s protocol (Thermo Fisher Scientific Inc., Waltham, MA, USA). After that, 5 µm thin sections were prepared with a cryostat (Leica Microsystems, Wetzlar, Germany). Incubation was carried out with the following antibodies diluted at 1:1000 in TBS supplemented with 1% horse serum and 1% BSA for 20 min at room temperature: anti-Ki67 (cat. number ab16667, Abcam, Cambridge, UK), anti-CD31 (cat. number 550274, BD Biosciences, Frankton Lake, NJ, USA) or anti-αSMA (cat. number A2547, Merck Millipore, Burlington, MA, USA). The preparations were then washed with TBS–0.025% Triton, incubated with anti-rabbit Alexa488 and anti-mouse Alex-555-coupled secondary antibodies (Cell Signaling Technology, Danvers, MA, USA), washed with TBS–0.025% Triton, and the nuclei were counterstained with Hoechst33342 (Thermo Fisher Scientific, Waltham, MA, USA). Fluorescence images of the cells were taken with a DMI400 inverted microscope equipped with a 40× objective (Leica Microsystemes, Nanterre, France) and a Zyla 5.5 camera (Andor Technologies, Belfast, UK) powered by the Micromanager software. At least one cross-section of nonoverlapping images of each tumor was acquired. All the images were then quantified with the CellProfiler 3.0 software.
# MB cells = experiment: Cell viability, propidium iodine incorporation, MB cells; type: cell-based, human; settings: 48 h, 5 µM
# Method: (§2) Cell viability assays were conducted using a propidium iodine incorporation technique with an ADAM-sHIT automated cell counter (NanoEnTek, Gyeonggi-do, Korea) according to the manufacturer’s protocol.
# HDF [2] = experiment: Cumulative population doubling (CPD), HDF; type: cell-based, human; settings: transient treatment for 48 h, 5 µM
# Method: (§3) Cumulative population doubling (CPD) was assessed as previously described. Briefly, depending on the cell line, a variable number of cells corresponding to about 30% confluency were seeded in triplicate in 60 mm diameter Petri dishes. […] The cells were harvested when the confluency reached about 90%, counted and plated again at a dilution of 1/20. CPD was calculated as previously described.
# C8-D1A = experiment: Cumulative population doubling (CPD), C8-D1A; type: cell-based, murine
# Method: as §3
# [3] = test system: children presenting with refractory or recurrent tumors; settings: phase I study ref 20; cited from earlier work
# subcutaneous DAOY tumors = settings: oral, thrice a week; axitinib 50 mg/kg, etoposide 30 mg/kg, combination 25 + 15 mg/kg
# Method: For subcutaneous xenograft experiments, tumor cells expressing the luciferase (350,000 HDMB-Luc cells and 1.10^6 DAOY-Luc cells) were resuspended in 200 µL of 5 µg/mL Matrigel (Corning Inc., Corning, NY, USA) and injected subcutaneously in the flank of 5-week-old Rj:NMRI-Foxn1 nude (nu/nu) female mice (Janvier Labs, Le Genest-Saint-Isle, France). Saline solution (NaCl 0.9M; 100 µL) containing 30 mg/mL D-Luciferin (Perkin Elmer, Wellesley, MA, USA) was injected intraperitoneally in the animals and the bioluminescence was quantified using an In Vivo Imaging System (Perkin Elmer, Wellesley, MA, USA) according to the manufacturer’s instructions. Tumor volume (V = L × l2 × 0.52) was determined with a caliper and the endpoint was determined as a tumor volume of 1000 mm^3. […] The mice were sacrificed when the tumor reached 1000 mm^3. […]
# as §1
# Tumor samples were recovered from the animals and embedded in the OCT compound according to the manufacturer’s protocol (Thermo Fisher Scientific Inc., Waltham, MA, USA). […] All the images were then quantified with the CellProfiler 3.0 software.
# [4] = test system: MB cells (DAOY, HD-MB03, D283, D458, CHLA-01-MED spheroids); experiment: Spheroid assay, five MB cell lines; type: cell-based, human; settings: 5 µM, continuous treatment
# Method: Two thousand cells were seeded in ultralow-adhesion 96-well plates (Corning Inc., Corning, NY, USA). […] Pictures were taken with an AMG Evos microscope 40× objective (Thermo Fisher Scientific Inc, Waltham, MA, USA) and the spheroid areas were measured using the ImageJ software (NIH, Bethesda, MD, USA).
# DAOY = experiment: Cumulative population doubling (CPD), DAOY; type: cell-based, human; settings: continuous treatment; axitinib 5 µM, etoposide 1 µM
# Method: as §3
# [5] = LC/MS measurement of axitinib in rat cerebellum; type: in vivo; settings: after 28 days of 50 mg/kg/day oral gavage
# Text: The experiments were approved by Comité National Institutionnel d’Ethique pour l’Animal de Laboratoire (France). The rats were bled and the brains were recovered and flash-frozen at the end of the experiment.
# barrier formed by HUVEC = experiment: In vitro endothelium permeability assay (FITC-Dextran), HUVEC; type: cell-based, human; settings: 3-day treatment, nontoxic doses
# Method: This assay was conducted as previously described. […] Permeability was measured by the passage of 40 kDa FITC-Dextran through the inserts. Fluorescence intensity measures were normalized to the DMSO control.
# [6] = test system: group 3 (D283, D458 and HD-MB03) and putative Shh group (DAOY) MB cell lines; experiment: MTT assay, mean IC50 over group 3 and Shh MB cell lines; type: cell-based; settings: Homo sapiens
# Method: HDF (3000 cells), C8-D1A (5000 cells), D458 (5000 cells), DAOY (2000 cells), HD-MB03 (10,000 cells) and CHLA-01-Med (10,000 cells) were seeded at an approximate confluency of 50% in 96-well plates (Corning Inc., Corning, NY, USA) in 100 µL medium per well. A range from 50 nM to 150 µM of every drug was tested. The effects of the antiangiogenic compounds were measured using a 3-[4,5-dimethylthiazol-2yl]-diphenyltetrazolium bromide (MTT) colorimetric assay (Sigma, Lyon, France) according to the manufacturer’s instructions. When applicable, IC50 was calculated using the nonlinear regression method of the Prism 5 software (Graphpad Software Inc., San Diego, CA, USA). […] An MTT assay was conducted as described above to assess the fitness of the cells.
# HDF [7] = experiment: Cell viability, propidium iodine incorporation, HDF; type: cell-based, human; settings: 48 h; axitinib, cabozantinib 5 µM, etoposide 1 µM
# Method: as §2
# [8] = axitinib 50 mg/kg, etoposide 30 mg/kg, combination 25 + 15 mg/kg
smiles,measurement,setting,value
"CNC(=O)c1ccccc1Sc1ccc2c(/C=C/c3ccccn3)n[nH]c2c1 [Axitinib, axitinib]",number of endothelial cells (CD31-positive) and/or pericytes/cancer-associated fibroblasts (αSMA-positive),[1],did not impact
same,surface of necrotic areas,[1],increased the surface of necrotic areas
same,"tumor growth rates (linear regression, growth phase)",[1],reduced
same,median time to reach the endpoint volume (1000 mm^3),[1]; [8],18 days
same,range of time to reach the endpoint volume (1000 mm^3),[1]; [8],13 to 63 days
same,viability of MB cells,MB cells,decreased the viability of most MB cells
same,proliferation (CPD) of HDF normal cells after removal of the drug,HDF [2],able to proliferate again
same,long-term proliferation (CPD) of C8-D1A cells,"C8-D1A; continuous treatment, 5 µM axitinib, compared to etoposide 1 µM",milder effect
same,proliferation (CPD) of C8-D1A normal cells after removal of the drug,"C8-D1A; transient treatment for 48 h, 5 µM",able to proliferate again
same,maximum tolerated and recommended dose in children,[3],2.4 mg/m^2
same,tumor growth (lognormal mathematical modelling),subcutaneous DAOY tumors,did not impair tumor growth
same,3D growth of MB cell spheroids,[4],abolished 3D growth
same,long-term proliferation (CPD) of DAOY cells,DAOY,strongly impaired their proliferation
same,axitinib content of cerebella (LC/MS),[5],present in the cerebellum
same,permeability of the barrier formed by HUVEC,barrier formed by HUVEC,permeabilized the barrier
same,IC50,[6],1.1 ± 0.9 µM
same,viability of HDF normal cells,HDF [7],no effect on the viability
